Measurements reported in patent publication US10570179B2, “Substituted urea depsipeptide analogs as activators of the CLPP endopeptidase” (priority 2016, dated 2020).
Converted amounts (≈) assume the structure as drawn. Read-outs that look alike come from different tables or passages of the source. Numbered stars: 1 amine (or outer) side, 2 acyl side, 3 side chain; on linkers, the order of the positions; unused ones are H or OH. Bridge positions count the residues as written; N and C are the ends. Square brackets hold non-standard residues; d marks the D form. Peptide text beside a SMILES is read from it. * marks the point of attachment. Piperazine(2S-CO,4-Me) = CN1CCN[C@H](C(=O)O)C1; NH(1,3-benzodioxol-5-yl) = c1cc2c(cc1N*)OCO2; Phe(3,5-F2) = N[C@@H](Cc1cc(F)cc(F)c1)C(=O)O; Phe(3,5-Me2) = Cc1cc(C)cc(C[C@H](N)C(=O)O)c1; NH(1-Me-indolin-5-yl) = CN1CCc2cc(N*)ccc21; Morpholine(3S-CO) = O=C(O)[C@@H]1COCCN1; Phe(3-Me) = Cc1cccc(C[C@H](N)C(=O)O)c1; Pro(4R-Me) = C[C@H]1CN[C@H](C(=O)O)C1; X1 = O=C([C@@H]1CSCCN1[*:1])[*:2]; Hyp = O=C(O)[C@@H]1C[C@@H](O)CN1; NH(4-Et-phenyl) = CCc1ccc(N*)cc1; NH(4-Me-phenyl) = Cc1ccc(N*)cc1; aThr = C[C@H](O)[C@H](N)C(=O)O; Pip = O=C(O)[C@@H]1CCCCN1; CO = O=C([*:1])[*:2]

Legend:
Plasma stability assay = format: in vitro ADME, mouse
Experimental: The plasma stability property of early drug discovery compounds can influence the in vivo efficacy of the test compounds/drugs. Human and/or mouse plasma degradation is determined using multiple time points to monitor the rate of disappearance of the parent compound during incubation.
Sample preparation for plasma stability was modified from Di et al. (2005) Int. J. Pharm. 297(1-2): 110-119. A set of incubation times of 0, 3, 24, and 48 hour were used. DMSO stock solutions of test compounds were prepared at 10 mM concentration. 1.8 μL of each test compound was each added directly to 1.8 mL of human/mouse plasma to get the final concentration of 10 μM. This compound/matrix was mixed and 70 μL was transferred to 8 time points plates (each in triplicate wells). For the Time 0 plate, 210 μL of cold acetonitrile with internal standard (4 μg/mL warfarin) was added to each well and no incubation needed. For other seven time points' plate, the plate was incubated at 37° C. for required time, followed by quenching of the reaction by adding 210 μL of cold acetonitrile with internal standard (4 μg/ml warfarin) to each well. All of the plates were sealed and mixed well at 600 rpm for 10 min and were centrifuged at 4000 rpm for 20 min. The supernatants (120 μL) were transferred to analytical plates for analysis by LCMS. Conditions for Waters ACQUITY-UPLC-MS-UV system was described separately. The plasma stability was evaluated via the half-life from least-squares fit of the multiple time points based on first-order kinetics.

[1] = Microsomal metabolic stability; format: in vitro ADME, human
Experimental: Compounds were initially prepared by dissolving them into DMSO at a final concentration of 10 mM. NADPH regenerating solutions A and B and mouse liver microsomes (CD-1) were obtained from BD Gentest (Woburn, Mass.). Ninety-six well deep well plates were obtained from MidWest Scientific Inc (Valley Park, Mo.).
Sample preparation for microsomal stability was modified from methods of Di, L., et al., Int J Pharm. 2005 Jun. 13; 297(1-2):110-9. A set of incubation times of 0, 15, 30, 60, 120, and 240 minutes were used. Mouse liver microsomal solutions were prepared by adding 58 μL of concentrated human or mouse liver microsomes (20 mg/mL protein concentration) to 1.756 mL of 0.1 M potassium phosphate buffer (pH 7.4) and 5 μL of 0.5 M EDTA to make a 0.6381 mg/mL (protein) microsomal solution. NADPH regenerating agent contained 113 μL of NADPH A, 23 μL of NADPH B, and 315 μL of 0.1 M potassium phosphate buffer (pH 7.4). The diluted test compound solutions (2 μL) were each added directly to a 1.79 mL of liver microsomal solution. This solution was mixed and 90 μL was transferred to 6 time points plates (each in triplicate wells). For the time 0 plate, 225 μL of cold acetonitrile with internal standard ([…] warfarin) was added to each well, followed by addition of NADPH regenerating agent (22.5 μL) and no incubation. For other five time points' plate, NADPH regenerating agent (22.5 μL) was added to each well to initiate the reaction. The plates were incubated at 37° C. for the required time, followed by quenching of the reaction by adding 225 μL of cold acetonitrile with internal standard (4 μg/ml warfarin). All of the plates were sealed and mixed well at 600 rpm for 10 minutes followed by centrifugation at 4000 rpm for 20 minutes. The supernatants (120 μL) were transferred to analytical plates for analysis by LCMS. LCMS conditions were described in the materials and instrumentation section above. The metabolic stability is evaluated via the half-life from least-squares fit of the multiple time points based on first-order kinetics.

Solubility determination = format: physicochemical; conditions: for solubility kinetic at 10 min: 22 °C, aqueous buffer, kinetic from dmso stock
Experimental: Test compounds were synthesized and supplied by the Department of Chemical Biology and Therapeutics at St. Jude Children's Research Hospital (Memphis, Tenn.). LC-MS chromasolv grade acetonitrile (ACN) was purchased from Fisher Scientific (Loughborough, UK). LC-MS chromasolv grade formic acid was obtained from Sigma-Aldrich (St. Louis, Mo.). Milli-Q water as an ultrapure laboratory grade water was used in aqueous mobile phase.
Chromatographic separation was performed on an Acquity UPLC BEH C18 1.7 μm, 2.1×50 mm column (Waters Corporation, Milford, Mass.) using an Acquity ultra performance liquid chromatography system. The total flow rate was 0.9 mL/min. The sample injection volume was 10 μL. The UPLC column was maintained at 60° C. and the gradient program started at 90% A (0.1% formic acid in MilliQ H2O), changed to 70% A over 0.2 min, to 95% B (0.1% formic acid in ACN) over 1.4 minutes, held for 0.35 minutes, then to 90% A over 0.05 minutes.
Mass data was acquired with an Acquity SQD Mass Spectrometer. The mass spectrometer was operated in positive-ion mode with electrospray ionization. The conditions were as follows: capillary voltage 3.5 kV, cone voltage 30 V, source temperature 150° C., desolvation temperature 350° C., desolvation gas 500 L/hr, cone gas 25 L/hr. Data were acquired using Masslynx v. 4.1 and analyzed using the Quanlynx software suite. A full scan range from m/z=100-1000 in 0.2 s was used to acquire MS data. Both UV and Single ion recording mass spectrometry were used to determine the quantification of the samples.
Stock solutions were prepared by dissolving compounds into DMSO to yield a concentration of 10 mM. Stock solutions were stored at room temperature.
Calibration standards were made by adding stock solutions to DMSO for final concentrations of compounds at concentration of 100, 25, 6.25, 1.563, 0.391 and 0.098 μM.
Solubility test samples were made by adding stock solutions to 200 μL, of DPBS for final concentrations of compounds at 100 μM in a 96-well analytical plate (300 μL, maximum volume in each well). Samples were tested in triplicates. The plate was sealed, shaken at 600 rpm for 10 minutes, and then was centrifuged at 4000 rpm for 20 min at 22° C. 100 μL, of the supernatant was transferred to a new analytical 96-well plate and 10 μL, was injected onto the LCMS system.
Two calibration curves for solubility test samples were analyzed during the quantitation process. The linear regression of test compound peak areas was weighted by 1/x^2. […] Coefficient of determination (R^2) was used to evaluate the linearity of each calibration curve.

[2] = plasma stability half-life, mouse plasma, 37° C.
[3] = microsomal metabolic stability half-life, human liver microsomes
[4] = solubility in DPBS, 100 μM test samples, LCMS, read-out: LCMS

SMILES | Mouse (Plasma stability assay; [2]) [h] | Human [1, 3] | solubility kinetic at 10 min (Solubility determination; [4]) [µM] | μsol (μM) (Solubility determination; solubility) [µM] | Mouse (Plasma stability assay; mouse, 10 μM) [h] | Human ([1]; human, pH 7.4) [h] | μsol (μM) (Solubility determination) [µM] | solubility kinetic at 10 min (Solubility determination) [µM] | Mouse (hr) (Plasma stability assay; [2]) | μsol (μg/mL) (Solubility determination; solubility) [µg/mL]
Cc1ccc(NC(=O)N[C@@H](Cc2cccc(C)c2)C(=O)N[C@@H]2C(=O)N3C[C@H](O)C[C@H]3C(=O)N3CCSC[C@H]3C(=O)N[C@@H](C)C(=O)N3C[C@H](C)C[C@H]3C(=O)O[C@H]2C)cc1 [Compound 42, (S)—N-((6AS,8R,12S,13S,15AS,17R,21S,23AR)-8-HYDROXY-13,17,21-TRIMETHYL-6,11,15,20,23-PENTAOXOOCTADECAHYDRO-6H,11H,15H-DIPYRROLO[2,1-C:2′,1′-L][1,4]THIAZINO[3,4-I][1]OXA[4,7,10,13]TETRAAZACYCLOHEXADECIN-12-YL)-3-(M-TOLYL)-2-(3-(P-TOLYL)UREIDO)PROPANAMIDE] ({NH(4-Me-phenyl)-CO}-[Phe(3-Me)][aThr][Hyp][X1]A[Pro(4R-Me)]; ester 2-C) | >50 | 0.81 ± .813 h | 29.2 ± 9.2 (≈ 23.9 µg/mL) | 29.7 ± 9.7 |  |  |  |  |  | 
Cc1cccc(C[C@H](NC(=O)Nc2ccc3c(c2)OCO3)C(=O)N[C@H]2COC(=O)[C@@H]3C[C@@H](C)CN3C(=O)[C@H](C)NC(=O)[C@@H]3CN(C)CCN3C(=O)[C@@H]3CCCN3C2=O)c1 [Compound 17, (S)-2-(3-(BENZO[D][1,3]DIOXOL-5-YL)UREIDO)-3-(M-TOLYL)-N-((6AS,12S,15AS,17R,21S,23AS)-2,17,21-TRIMETHYL-6,11,15,20,23-PENTAOXOOCTADECAHYDRO-2H,6H,11H,15H-PYRAZINO[2,1-I]DIPYRROLO[2,1-C:2′,1′-L][1]OXA[4,7,10,13]TETRAAZACYCLOHEXADECIN-12-YL)PROPANAMIDE] ({NH(1,3-benzodioxol-5-yl)-CO}-[Phe(3-Me)]SP[Piperazine(2S-CO,4-Me)]A[Pro(4R-Me)]; ester 2-C) |  |  |  |  | 6.46 ± 0.4 | 1.58 ± 0.25 | 71.1 ± 0.7 | 64.6 ± 2 (≈ 52.8 µg/mL) |  | 
Cc1ccc(NC(=O)N[C@@H](Cc2cccc(C)c2)C(=O)N[C@H]2COC(=O)[C@@H]3C[C@@H](C)CN3C(=O)[C@H](C)NC(=O)[C@@H]3CN(C)CCN3C(=O)[C@@H]3CCCN3C2=O)cc1 [Compound 15, (S)-3-(M-TOLYL)-2-(3-(P-TOLYL)UREIDO)-N-((6AS,12S,15AS,17R,21S,23AS)-2,17,21-TRIMETHYL-6,11,15,20,23-PENTAOXOOCTADECAHYDRO-2H,6H,11H,15H-PYRAZINO[2,1-I]DIPYRROLO[2,1-C:2′,1′-L][1]OXA[4,7,10,13]TETRAAZACYCLOHEXADECIN-12-YL)PROPANAMIDE] ({NH(4-Me-phenyl)-CO}-[Phe(3-Me)]SP[Piperazine(2S-CO,4-Me)]A[Pro(4R-Me)]; ester 2-C) | 5.95 ± 0.6 | 0.67 ± 0.04 h | 57.2 ± 1.1 (≈ 45 µg/mL) | 25.1 ± 1.7 |  |  |  |  |  | 
C[C@@H]1C[C@H]2C(=O)O[C@@H](C)[C@H](NC(=O)[C@H](Cc3cc(F)cc(F)c3)NC(=O)Nc3ccc4c(c3)CCN4C)C(=O)N3CCC[C@H]3C(=O)N3CCOC[C@H]3C(=O)N[C@@H](C)C(=O)N2C1 [Compound 32] ({NH(1-Me-indolin-5-yl)-CO}-[Phe(3,5-F2)][aThr]P[Morpholine(3S-CO)]A[Pro(4R-Me)]; ester 2-C) |  | 2.66 ± .66 h | 71.5 ± 1.5 (≈ 60.8 µg/mL) | 73.4 ± 3.4 |  |  |  |  | >>48 hr | 62.5 ± 2.1
Cc1ccc(NC(=O)N[C@@H](Cc2cc(C)cc(C)c2)C(=O)N[C@@H]2C(=O)N3CCC[C@H]3C(=O)N3CCCC[C@H]3C(=O)N[C@@H](C)C(=O)N3C[C@H](C)C[C@H]3C(=O)O[C@H]2C)cc1 [Compound 2, (S)-3-(3,5-DIMETHYLPHENYL)-2-(3-(P-TOLYL)UREIDO)-N-((2R,6S,8AS,14AS,20S,21S,23AS)-2,6,21-TRIMETHYL-5,8,14,19,23-PENTAOXOOCTADECAHYDRO-1H,5H,14H,19H-PYRIDO[2,1-I]DIPYRROLO[2,1-C:2′,1′-L][1]OXA[4,7,10,13]TETRAAZACYCLOHEXADECIN-20-YL)PROPANAMIDE] ({NH(4-Me-phenyl)-CO}-[Phe(3,5-Me2)][aThr]P[Pip]A[Pro(4R-Me)]; ester 2-C) |  | 0.62 h | 6.7 (≈ 5.36 µg/mL) | 10.4 |  |  |  |  | >>48 hr | 8.3
CCc1ccc(NC(=O)N[C@@H](Cc2cccc(C)c2)C(=O)N[C@@H]2C(=O)N3C[C@H](O)C[C@H]3C(=O)N3CCOC[C@H]3C(=O)N[C@@H](C)C(=O)N3C[C@H](C)C[C@H]3C(=O)O[C@H]2C)cc1 [Compound 24, (S)-2-(3-(4-ETHYLPHENYL)UREIDO)-N-((6AS,8R,12S,13S,15AS,17R,21S,23AS)-8-HYDROXY-13,17,21-TRIMETHYL-6,11,15,20,23-PENTAOXOOCTADECAHYDRO-6H,11H,15H-[1,4]OXAZINO[3,4-I]DIPYRROLO[2,1-C:2′,1′-L][1]OXA[4,7,10,13]TETRAAZACYCLOHEXADECIN-12-YL)-3-(M-TOLYL)PROPANAMIDE] ({NH(4-Et-phenyl)-CO}-[Phe(3-Me)][aThr][Hyp][Morpholine(3S-CO)]A[Pro(4R-Me)]; ester 2-C) |  |  |  |  | >50 | 4.89 ± 0.67 | 48.4 ± 0.7 | 43.7 ± 0.9 (≈ 35.7 µg/mL) |  | 
